Experimental data reported in US12558326B2, “Method for treating epilepsy” (Xenon Pharmaceuticals Inc., priority 2018, dated 2026).

Tested on: CF-1 mice
Test: 6 Hz seizure test (44 mA, 3 sec, corneal electrodes) in vivo
Parameters: species or system mouse
Conditions: 20 mg/kg IP; for percentage of animals protected against psychomotor seizures: one hour before assay, 6 Hz 44 mA, n=16 per group
From the text: This assay tests the ability of a test compound to block a psychomotor seizure induced by long-duration, low frequency (6 Hz) stimulation, and provides an art-accepted model of therapy-resistant partial seizure (Brown et al., 1953 J. Pharmacol. Exp. Therapeut. 107(3):273-283; White H S, Woodhead J H, Wilcox K S, General principles: discovery and preclinical development of antiepileptic drugs, In: Levy R H, Mattson R H, Meldrum B S, Perucca E, editors. Antiepileptic drugs 5th ed Philadelphia: Lippincott Williams & Wilkins; 2002. pp. 36-48; Hartman et al., 2008 Epilepsia 49(2):334-339).
Methods. Adult male CF1 mice (18-25 g) are pretreated intraperitoneally (i.p.) with the test compound at a dose of 20-100 mg/kg. If toxicity is noted in a pre-test screen for toxic effects when the test compound is administered i.p. at varying dosages, the dose is modified to avoid overt toxic effects. Each treatment group (n=4-16 mice/group) is examined for anticonvulsive effects at one or more of five time points (¼, ½, 1, 2, and 4 hr) after treatment with the test compound. Following pretreatment, each mouse receives a drop of 0.5% tetracaine hydrochloride applied to each eye. The mouse is then challenged with low-frequency (6 Hz) stimulation for 3 sec delivered through corneal electrodes. The low-frequency, long-duration stimuli are initially delivered at 32 mA intensity. Animals are manually restrained and released immediately following the stimulation and observed for the presence or absence of seizure activity. If the test compound is effective in the 32 mA screen, an additional assay is performed in which the stimulation current is increased to 44 mA but otherwise using the same protocol as described above. For dose-response studies, an n of 8 mice is used per dose and a dose-response curve is generated at the time of peak effect (TPE) at the specific stimulation intensity.
Typically, the 6 Hz stimulation results in a seizure characterized by a minimal clonic phase that is followed by stereotyped, automatistic behaviors, including jaw clonus, forelimb clonus, twitching of the vibrissae, and/or Straub-tail. Animals not displaying such behaviors are considered protected. Seizure score can be used as an additional measure of the efficacy of the investigational compound (Racine, R. J. 1972 Electroencephalogr. Clin. Neurophysiol. 32(3):281-294). Data are analyzed by Mann-Whitney U test, with p<0.05 determined to be statistically significant. For data obtained at each time point, results are expressed as the total number of animals protected out of the number of animals tested over time (e.g., 2/4 represents 2 out of 4 mice tested are protected).
In this Example, the in vivo anticonvulsant effects of candidate AEDs were tested in mice using the 6 Hz seizure test. The 6 Hz seizure test was performed essentially as described above in Biological Example 2, with minor modifications as presented here, including data collection at a time point that was one hour after administration of the candidate AEDs.
Compounds: Candidate AED compounds were prepared as described above unless otherwise noted, and were as follows: • Racemic fenfluramine ([rac]-fenfluramine hydrochloride); • (R)-fenfluramine ([R]-(−)-fenfluramine hydrochloride); • Racemic norfenfluramine ([rac]-norfenfluramine) was purchased from Toronto Research Chemicals, North York, Ontario, Canada; • (R)-norfenfluramine ([R]-(−)-norfenfluramine.
Animals: Adult male CF-1 albino mice (25-35 g) purchased from Harlan-Envigo (East Millstone, NJ). The mice were housed four per cage and had access to filtered water and chow ad libitum, throughout the experiment.
Compound Preparation and Administration: All four compounds were solubilized in sterile aqueous saline solution (0.9% NaCl). Compounds were administered to animals (16 mice in each treatment group) via intraperitoneal (IP) injection at 10 ml/kg volume, one hour prior to the assay. Control animals received vehicle (saline) only. […]

CCN[C@H](C)Cc1cccc(C(F)(F)F)c1 [(R)-fenfluramine, (R)—N-ethyl-1-(3-(trifluoromethyl)phenyl)propan-2-amine]
percentage of animals protected against psychomotor seizures: 31.3%

CCNC(C)Cc1cccc(C(F)(F)F)c1 (racemic) [(rac)-fenfluramine, (R/S)—N-ethyl-1-(3-(trifluoromethyl)phenyl)propan-2-amine]
percentage of animals protected against psychomotor seizures: 37.5%
protective activity against seizures in the 6 Hz psychomotor seizure assay (summary statement): exhibited protective activity against seizures
